{"source": "patent US12570675B2", "about": "“Boronic acid compounds” (LG CHEM, LTD., priority 2020, dated 2026)", "data": [{"target": "Proteasome chymotrypsin-like activity (S26 protein from RPMI8226 cells) (Homo sapiens, UniProt P28074)", "sequence (P28074 60-263 limits assumed)": "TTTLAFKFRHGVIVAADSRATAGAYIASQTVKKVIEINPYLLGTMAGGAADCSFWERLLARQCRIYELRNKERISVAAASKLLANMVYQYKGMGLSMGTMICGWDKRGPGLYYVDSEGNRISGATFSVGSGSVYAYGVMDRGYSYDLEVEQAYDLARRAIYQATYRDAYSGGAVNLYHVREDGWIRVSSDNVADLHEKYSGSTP", "format": "biochemical", "conditions": "S26 protein from RPMI8226 cell extract 2 ug/well, substrate 20 uM, 37° C., 90 minutes; read-out: Proteasome chymotrypsin-like activity inhibition IC50", "procedure,_shortened": "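RPMI8226 myeloma cell lysate (S26 fraction, 20 mM Tris-HCl pH 8.0; 2 ug/well) incubated with compound serially diluted from 10 uM (0.5% DMSO) and 20 uM Suc-LLVY-AMC (chymotrypsin-like) or Z-LLE-AMC (caspase-like) for 90 min at 37 °C. Fluorescence read; IC50 from % of uninhibited signal.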", "units": {"IC50": "nM"}, "values": [{"smiles": "CC(C)C[C@H](NC(=O)C1(Cc2cccc(Cl)c2)CC(CNC(=O)c2cc(-c3ccccc3)nn2C(C)C)=NO1)B(O)O", "note": "(stereo partly drawn) [Example 249, ((1R)-1-(5-(3-chlorobenzyl)-3-((1-isopropyl-3-phenyl-1H-pyrazol-5-carboxamido)methyl)-4,5-dihydroisoxazol-5-carboxamido)-3-methylbutyl)boronic acid]", "IC50": "< 10"}, {"smiles": "Cc1cccc(CC2(C(=O)N[C@@H](CC(C)C)B(O)O)CC(CNC(=O)c3cc(C)nn3C3CCOCC3)=NO2)c1", "note": "(stereo partly drawn) [Example 251, ((1R)-3-methyl-1-(3-((3-methyl-1-(tetrahydro-2H-pyran-4-yl)-1H-pyrazol-5-carboxamido)methyl)-5-(3-methylbenzyl)-4,5-dihydroisoxazol-5-carboxamido)butyl)boronic acid]", "IC50": "< 10"}, {"smiles": "CC(C)C[C@H](NC(=O)C1(Cc2ccccc2)CC(CNC(=O)c2cnnc3ccccc23)=NO1)B(O)O", "note": "(stereo partly drawn) [Example 165, ((1R)-1-(5-benzyl-3-((cinnolin-4-carboxamido)methyl)-4,5-dihydroisoxazol-5-carboxamido)-3-methylbutyl)boronic acid]", "IC50": "< 10"}, {"smiles": "CC(=O)Nc1cccc(C(=O)NCC2=NOC(Cc3ccccc3)(C(=O)N[C@@H](CC(C)C)B(O)O)C2)c1", "note": "(some centres unmarked) [Example 320]", "IC50": "< 10"}, {"smiles": "O=C(N[C@@H](Cc1ccccc1)B(O)O)C1(Cc2ccccc2)CC(COCc2cccn3ccnc23)=NO1", "note": "(stereo partly drawn) [Example 267, ((1R)-1-(5-benzyl-3-((imidazo[1,2-a]pyridin-8-ylmethoxy)methyl)-4,5-dihydroisoxazol-5-carboxamido)-2-phenylethyl)boronic acid]", "IC50": "< 10"}, {"smiles": "CC(C)C[C@H](NC(=O)C1CC(c2cccc(Oc3ccccc3)c2)=NO1)B(O)O", "note": "(stereo partly drawn) [Example 40, ((1R)-3-methyl-1-(3-(3-phenoxyphenyl)-4,5-dihydroisoxazol-5-carboxamido)butyl)boronic acid]", "IC50": "< 500"}, {"smiles": "CC(C)C[C@H](NC(=O)C1(Cc2ccccc2)CC(C(C)(C)NC(=O)c2nccc3ccccc23)=NO1)B(O)O", "note": "(stereo partly drawn) [Example 157, [(1R)-1-[[5-benzyl-3-[1-(isoquinolin-1-carbonylamino)-1-methyl-ethyl]-4H-1,2-oxazol-5-carbonyl]amino]-3-methyl-butyl]boronic acid]", "IC50": "< 10"}, {"smiles": "COCCn1nccc1C(=O)NCC1=NOC(Cc2ccccc2)(C(=O)N[C@@H](CC(C)C)B(O)O)C1", "note": "(stereo partly drawn) [Example 191, ((1R)-1-(5-benzyl-3-((1-(2-methoxyethyl)-1H-pyrazol-5-carboxamido)methyl)-4,5-dihydroisoxazol-5-carboxamido)-3-methylbutyl)boronic acid]", "IC50": "< 25"}, {"smiles": "CC(C)C[C@H](NC(=O)C1CC(c2cnc3ccccc3c2)=NO1)B(O)O", "note": "(stereo partly drawn) [Example 29, ((1R)-3-methyl-1-(3-(quinolin-3-yl)-4,5-dihydroisoxazol-5-carboxamido)butyl)boronic acid]", "IC50": "< 500"}, {"smiles": "COc1cccc(CC2(C(=O)N[C@@H](CC(C)C)B(O)O)CC(CNC(=O)c3cc(-c4ccccc4)nn3C(C)C)=NO2)c1", "note": "(stereo partly drawn) [Example 230, ((1R)-1-(3-((1-isopropyl-3-phenyl-1H-pyrazol-5-carboxamido)methyl)-5-(3-methoxybenzyl)-4,5-dihydroisoxazol-5-carboxamido)-3-methylbutyl)boronic acid]", "IC50": "< 10"}, {"smiles": "CC(C)C[C@H](NC(=O)C1(C(C)C)CC(CNC(=O)c2cc(Cl)ccc2Cl)=NO1)B(O)O", "note": "(stereo partly drawn) [Example 89, ((1R)-1-(3-((2,5-dichlorobenzamido)methyl)-5-isopropyl-4,5-dihydroisoxazol-5-carboxamido)-3-methylbutyl)boronic acid]", "IC50": "< 100"}, {"smiles": "CC(C)C[C@H](NC(=O)C1(Cc2ccccc2)CC(COCc2cccc(C#N)c2)=NO1)B(O)O", "note": "(some centres unmarked) [Example 264]", "IC50": "< 10"}, {"smiles": "Cc1nc(C(=O)NCC2=NOC(Cc3ccccc3)(C(=O)N[C@@H](CC(C)C)B(O)O)C2)co1", "note": "(stereo partly drawn) [Example 173, ((1R)-1-(5-benzyl-3-((2-methyloxazol-4-carboxamido)methyl)-4,5-dihydroisoxazol-5-carboxamido)-3-methylbutyl)boronic acid]", "IC50": "< 25"}, {"smiles": "COc1ccc(C(=O)NCC2=NOC(Cc3ccccc3)(C(=O)N[C@@H](Cc3ccccc3)B(O)O)C2)cc1", "note": "(stereo partly drawn) [Example 283, ((1R)-1-(5-benzyl-3-((4-methoxybenzamido)methyl)-4,5-dihydroisoxazol-5-carboxamido)-2-phenylethyl)boronic acid]", "IC50": "< 10"}, {"smiles": "Cc1ccc(F)cc1C(=O)NCC1=NOC(Cc2ccccc2)(C(=O)N[C@@H](CC(C)C)B(O)O)C1", "note": "(stereo partly drawn) [Example 111, ((1R)-1-(5-benzyl-3-((5-fluoro-2-methylbenzamido)methyl)-4,5-dihydroisoxazol-5-carboxamido)-3-methylbutyl)boronic acid]", "IC50": "< 10"}, {"smiles": "CC(C)C[C@H](NC(=O)C1(Cc2ccccc2)CC(CNC(=O)c2ccccc2Cl)=NO1)B(O)O", "note": "(some centres unmarked) [Example 286]", "IC50": "< 10"}, {"smiles": "CC(C)C[C@H](NC(=O)C1(Cc2cc(F)cc(F)c2)CC(CNC(=O)c2nccc3ccccc23)=NO1)B(O)O", "note": "(stereo partly drawn) [Example 183, ((1R)-1-(5-(3,5-difluorobenzyl)-3-((isoquinolin-1-carboxamido)methyl)-4,5-dihydroisoxazol-5-carboxamido)-3-methylbutyl)boronic acid]", "IC50": "< 10"}, {"smiles": "CC(C)C[C@H](NC(=O)C1(Cc2cscn2)CC(CNC(=O)c2nccc3ccccc23)=NO1)B(O)O", "note": "(stereo partly drawn) [Example 137, ((1R)-1-(3-((isoquinolin-1-carboxamido)methyl)-5-(thiazol-4-ylmethyl)-4,5-dihydroisoxazol-5-carboxamido)-3-methylbutyl)boronic acid]", "IC50": "< 10"}, {"smiles": "CC[C@H](NC(=O)C1(Cc2ccccc2)CC(CNC(=O)c2cccc3ccccc23)=NO1)B(O)O", "note": "(stereo partly drawn) [Example 303, ((1R)-1-(3-((1-naphthamido)methyl)-5-benzyl-4,5-dihydroisoxazol-5-carboxamido)propyl)boronic acid]", "IC50": "< 10"}, {"smiles": "Cc1nn(C(C)C)c(C(=O)NCC2=NOC(Cc3ccccc3)(C(=O)N[C@@H](CC(C)C)B(O)O)C2)c1Cl", "note": "(stereo partly drawn) [Example 222, ((1R)-1-(5-benzyl-3-((4-chloro-1-isopropyl-3-methyl-1H-pyrazol-5-carboxamido)methyl)-4,5-dihydroisoxazol-5-carboxamido)-3-methylbutyl)boronic acid]", "IC50": "< 10"}, {"smiles": "CC(C)C[C@H](NC(=O)C1CC(c2ccc(-c3cccc(F)c3)cn2)=NO1)B(O)O", "note": "(stereo partly drawn) [Example 28, ((1R)-1-(3-(5-(3-fluorophenyl)pyridin-2-yl)-4,5-dihydroisoxazol-5-carboxamido)-3-methylbutyl)boronic acid]", "IC50": "< 250"}, {"smiles": "Cc1nn(C)cc1C(=O)NCC1=NOC(Cc2ccccc2)(C(=O)N[C@@H](CC(C)C)B(O)O)C1", "note": "(stereo partly drawn) [Example 226, ((1R)-1-(5-benzyl-3-((1,3-dimethyl-1H-pyrazol-4-carboxamido)methyl)-4,5-dihydroisoxazol-5-carboxamido)-3-methylbutyl)boronic acid]", "IC50": "< 25"}, {"smiles": "CC(C)C[C@H](NC(=O)C1(Cc2ccccc2)CC(COCc2cccc(Br)c2)=NO1)B(O)O", "note": "(stereo partly drawn) [Example 52, ((1R)-1-(5-benzyl-3-(((3-bromobenzyl)oxy)methyl)-4,5-dihydroisoxazol-5-carboxamido)-3-methylbutyl)boronic acid]", "IC50": "< 10"}, {"smiles": "CC(C)C[C@H](NC(=O)C1(Cc2c(F)cccc2F)CC(CNC(=O)c2nccc3ccccc23)=NO1)B(O)O", "note": "(stereo partly drawn) [Example 174, ((1R)-1-(5-(2,6-difluorobenzyl)-3-((isoquinolin-1-carboxamido)methyl)-4,5-dihydroisoxazol-5-carboxamido)-3-methylbutyl)boronic acid]", "IC50": "< 10"}, {"smiles": "CC(C)C[C@H](NC(=O)C1(Cc2cccc(F)c2F)CC(CNC(=O)c2nccc3ccccc23)=NO1)B(O)O", "note": "(stereo partly drawn) [Example 203, ((1R)-1-(5-(2,3-difluorobenzyl)-3-((isoquinolin-1-carboxamido)methyl)-4,5-dihydroisoxazol-5-carboxamido)-3-methylbutyl)boronic acid]", "IC50": "< 10"}, {"smiles": "O=C(N[C@@H](Cc1ccccc1)B(O)O)C1(Cc2ccccc2)CC(COc2cccc(Cl)c2)=NO1", "note": "(stereo partly drawn) [Example 259, ((1R)-1-(5-benzyl-3-((3-chlorophenoxy)methyl)-4,5-dihydroisoxazol-5-carboxamido)-2-phenylethyl)boronic acid]", "IC50": "< 50"}, {"smiles": "CC(C)C[C@H](NC(=O)C1CC(c2cccc(C(C)(C)C)c2)=NO1)B(O)O", "note": "(stereo partly drawn) [Example 14, ((1R)-1-(3-(3-(tert-butyl)phenyl)-4,5-dihydroisoxazol-5-carboxamido)-3-methylbutyl)boronic acid]", "IC50": "< 250"}, {"smiles": "Cc1cccc(COCC2=NOC(Cc3ccccc3)(C(=O)N[C@@H](CC(C)C)B(O)O)C2)c1", "note": "(some centres unmarked) [Example 270]", "IC50": "< 10"}, {"smiles": "CC(C)C[C@H](NC(=O)C1CC(c2ccnc3ccccc23)=NO1)B(O)O", "note": "(stereo partly drawn) [Example 23, ((1R)-3-methyl-1-(3-(quinolin-4-yl)-4,5-dihydroisoxazol-5-carboxamido)butyl)boronic acid]", "IC50": "< 250"}, {"smiles": "CC(C)C[C@H](NC(=O)C1(Cc2ccccc2)CC(CNC(=O)c2cc3ccccc3s2)=NO1)B(O)O", "note": "(stereo partly drawn) [Example 93, ((1R)-1-(3-((benzo[b]thiophen-2-carboxamido)methyl)-5-benzyl-4,5-dihydroisoxazol-5-carboxamido)-3-methylbutyl)boronic acid]", "IC50": "< 10"}, {"smiles": "Cc1nocc1C(=O)NCC1=NOC(Cc2ccccc2)(C(=O)N[C@@H](CC(C)C)B(O)O)C1", "note": "(stereo partly drawn) [Example 120, ((1R)-1-(5-benzyl-3-((3-methylisoxazol-4-carboxamido)methyl)-4,5-dihydroisoxazol-5-carboxamido)-3-methylbutyl)boronic acid]", "IC50": "< 10"}, {"smiles": "CC(C)C[C@H](NC(=O)C1(Cc2ccccc2)CC(CNC(=O)c2c(Cl)cnn2C)=NO1)B(O)O", "note": "(stereo partly drawn) [Example 184, ((1R)-1-(5-benzyl-3-((4-chloro-1-methyl-1H-pyrazol-5-carboxamido)methyl)-4,5-dihydroisoxazol-5-carboxamido)-3-methylbutyl)boronic acid]", "IC50": "< 10"}]}]}
